Among the data in PMC5653977 (EMBO Molecular Medicine, 2017) are Z-SCORE values, retold here.

Counter-ions that a name gives are not always drawn.

One assay relates to NRG1-ERBB4 signaling. As to the kind of experiment: Nrg1-ERBB4-PIK3R1 split TEV co-culture compound screen of the NIH Clinical Collection. The class given is cell-based, human. To be noted: NIH Clinical Collection NCC-003 raw data; compounds ranked by Z-score; 'flagged' given instead of a Z-score.
As for `CCCCCCCCCOc1ccc2[nH]cc(CCN)c2c1` [5-Nonyloxytryptamine], the Z-SCORE entry is “flagged”. On to `CC(C)C[C@H](NC(=O)[C@@H](COC(C)(C)C)NC(=O)[C@H](Cc1ccc(O)cc1)NC(=O)[C@H](CO)NC(=O)[C@H](Cc1c[nH]c2ccccc12)NC(=O)[C@H](Cc1cnc[nH]1)NC(=O)[C@@H]1CCC(=O)N1)C(=O)N[C@@H](CCCNC(=N)N)C(=O)N1CCC[C@H]1C(=O)NNC(N)=O` [GOSERELIN ACETATE], for which the Z-SCORE was -1.23. On the same count and under the same terms, then `C[C@]12CCC(=O)C=C1CC[C@@H]1[C@@H]2CC[C@@]2(C)[C@H]1CC[C@]2(O)C(=O)CO` [ReichsteinÂ’s substanceÂ S], with -1.82.

Staying with this assay, now noted: compound screen of the NIH Clinical Collection, sheet raw data NCC-003; compounds ranked by Z-score.
On to `Cc1ccsc1C(=CCCN1CCC[C@@H](C(=O)O)C1)c1sccc1C` [TIAGABINE HCl], for which the Z-SCORE is reported as -0.1. Still for that read-out and setting: then `CCCN1C[C@H](CSC)C[C@@H]2c3cccc4[nH]cc(c34)C[C@H]21` [PERGOLIDE MESYLATE], with -0.4; and `CCN(CC)C(=S)SSC(=S)N(CC)CC`, with -0.22. For `CC(c1cc2ccccc2s1)N(O)C(N)=O` (stereo not drawn) [ZILEUTON], the Z-SCORE is 1.28.

In turn, `C[N+]1(C)CCC(OC(=O)C(O)(c2ccccc2)C2CCCC2)C1` (stereo not drawn) [Glycopyrrolate, reference compound] yielded a Z-SCORE of 0. On the same count and under the same terms, then `CC[C@]1(O)CC[C@H]2[C@@H]3CCC4=CCCC[C@@H]4[C@H]3CC[C@@]21C` [Ethylestrenol], with -0.98; and `Cc1cccc(CCN2CCC(C(=O)c3ccc(NS(C)(=O)=O)cc3)CC2)n1.Cl.Cl`, with -0.17; and `O=c1c(O[C@@H]2O[C@H](CO)[C@H](O)[C@H](O)[C@H]2O)c(-c2ccc(O)c(O)c2)oc2cc(O)cc(O)c12` [HYPEROSIDE], with 0.68. Still for that read-out and setting: then `CC(=O)CCCCn1cnc2c1c(=O)n(C)c(=O)n2C` [LOMIFYLLINE], with -0.7; and `CCN1CCC[C@H]1CNC(=O)c1c(O)c(Cl)cc(Cl)c1OC` [Raclopride], with -0.81. The compound `CCN(CC)CC1CCCCN1CC(=O)N1c2ccccc2C(=O)Nc2cccnc21` (stereo not drawn) displayed a Z-SCORE of 1. The compound `CCN1CCC[C@H]1CNC(=O)c1cc(S(N)(=O)=O)ccc1OC` [LEVOSULPIRIDE] returned a Z-SCORE of -0.53. The compound `O=c1c2ccccc2[se]n1-c1ccccc1` [EBSELEN] returned a Z-SCORE of -0.25. Same read-out and setting: then `Cc1cn([C@H]2C=C[C@@H](CO)O2)c(=O)[nH]c1=O` [STAVUDINE, reference compound], with 0.08; and `Oc1ccc(C2CNCCc3c2cc(O)c(O)c3Cl)cc1` (stereo not drawn) [FENOLDOPAM MESYLATE], with -0.37; and `CCCN[C@H]1CCc2nc(N)sc2C1.Cl` [PRAMIPEXOLE HCl], with -0.74. Compound `COCCOC(=O)C1=C(C)NC(C)=C(C(=O)OC(C)C)C1c1cccc([N+](=O)[O-])c1` (stereo not drawn) [NIMODIPINE] came in with a Z-SCORE of -0.83. Still for that read-out and setting: then `C[C@H]1C[C@H]2[C@@H]3CCC4=CC(=O)C=C[C@]4(C)[C@@]3(Cl)[C@@H](O)C[C@]2(C)[C@@]1(O)C(=O)CO` [Beclomethasone], with -0.67. Still for that read-out and setting: then `CC(Cc1ccccc1)(NC(=O)CN)c1ccccc1` (racemic), with 0.97. On the same count and under the same terms, then `C[C@H]1COc2c(N3CCN(C)CC3)c(F)cc3c(=O)c(C(=O)O)cn1c23` [LEVOFLOXACIN], with -0.28; and `CN1CCN(CCCN2c3ccccc3Sc3ccc(Cl)cc32)CC1`, with -0.47; and `CC(C)c1ccc2c(c1)c(SC(C)(C)C)c(CC(C)(C)C(=O)O)n2Cc1ccc(Cl)cc1`, with 0.23. Turning to `Nc1nc(Cl)nc2c1ncn2[C@@H]1O[C@H](CO)[C@@H](O)[C@H]1O` [2-CHLOROADENOSINE], the Z-SCORE was 0.61.

`O=c1n(CCCN2CCN(c3cccc(Cl)c3)CC2)nc2ccccn12` [TRAZODONE HYDROCHLORIDE]: the Z-SCORE turned out to be 0.17.

Turning to `O=c1[nH]c(=O)n(C2CCCO2)cc1F` (stereo not drawn) [FTORAFUR], the Z-SCORE was -0.09. On the same count and under the same terms, then `CNC(=C[N+](=O)[O-])NCCSCc1csc(CN(C)C)n1` [NIZATIDINE], with -0.53. On the same count and under the same terms, then `COc1cc(/C=C/c2ccc(O)cc2)cc(OC)c1` [PTEROSTILBENE], with -0.71; and `O=C(O)CCc1nc(-c2ccccc2)c(-c2ccccc2)o1` [OXAPROZIN], with 0.6; and `Cl.NC1CCN(c2cccc(Cl)n2)CC1` [SR 57,227A], with -0.24. On the same count and under the same terms, then `CCOc1cc(N)c(Cl)cc1C(=O)NCC1CN(Cc2ccc(F)cc2)CCO1` (stereo not drawn) [MOSAPRIDE CITRATE], with 0.73; and `CC(=O)O[C@H]1C[C@@H]2CC[C@@H]3[C@H](CC[C@@]4(C)[C@H]3C[C@H]([N+]3(C)CCCCC3)[C@@H]4OC(C)=O)[C@@]2(C)C[C@@H]1[N+]1(C)CCCCC1` [Pancuronium], with -0.32. In the case of `O=C(c1ccccc1)c1ccc2n1CCC2C(=O)O` (stereo not drawn) [Ketorolac tromethamine], the Z-SCORE is on record as -0.4. Still for that read-out and setting: then `C[C@]12Cc3c[nH]nc3C[C@@H]1CC[C@@H]1[C@@H]2CC[C@@]2(C)[C@H]1CC[C@]2(C)O` [Stanozolol], with 0.07; and `C[C@]12CCC(=O)C=C1CC[C@@H]1[C@@H]2CC[C@@]2(C)[C@H]1CC[C@]2(C)O` [Methyltestosterone], with -0.41.

The assay is the same for the next values; noted with them: compounds at 10 μM, 24 h; PC12 split TEV assay cells co-cultured with Nrg1-expressing PC12 cells; analysed with cellHTS2.
For `CN1CCC[C@H]1c1cccnc1` [NICOTINE, reference compound], the Z-SCORE was -0.12. Same read-out and setting: then `Nc1ccc(S(=O)(=O)c2ccc(N)cc2)cc1` [Dapsone, reference compound], with -0.6; and `C=C(CC)C(=O)c1ccc(OCC(=O)O)c(Cl)c1Cl` [ETHACRYNIC ACID, reference compound], with -1.25.

`C[N+]1(C)CCC(OC(=O)C(O)(c2ccccc2)C2CCCC2)C1` (stereo not drawn) [Glycopyrrolate, reference compound] had a Z-SCORE of -0.44. As to `CCOC(=O)CCC(=O)O[C@H]1[C@H](O[C@@H]2[C@@H](C)[C@H](O[C@H]3C[C@@](C)(OC)[C@@H](O)[C@H](C)O3)[C@@H](C)C(=O)O[C@H](CC)[C@@](C)(O)[C@H](O)[C@@H](C)C(=O)[C@H](C)C[C@@]2(C)O)O[C@H](C)C[C@@H]1N(C)C` [Eryped, reference compound], the Z-SCORE was -0.38. On the same count and under the same terms, then `O=C(O)c1cccnc1` [Nicotinic Acid, reference compound], with -0.31; and `COC(=O)C1=C(C)NC(C)=C(C(=O)OCCN(C)Cc2ccccc2)C1c1cccc([N+](=O)[O-])c1` (stereo not drawn) [Cardene, reference compound], with -1.07. `CC(C)NCC(O)COc1ccc(CC(N)=O)cc1` (stereo not drawn) [ATENOLOL, reference compound] displayed a Z-SCORE of 0.6.

Compound `COC1=CC(=O)C[C@@H](C)[C@]12Oc1c(Cl)c(OC)cc(OC)c1C2=O` [Griseofulvin, reference compound] had a Z-SCORE of 0.64. Same read-out and setting: then `CC(C)(S)C(N)C(=O)O` (racemic) [DL-PENICILLAMINE, reference compound], with 2.02; and `Cc1cn([C@H]2C=C[C@@H](CO)O2)c(=O)[nH]c1=O` [STAVUDINE, reference compound], with 0.2; and `CC1(C)S[C@@H]2[C@H](NC(=O)Cc3ccccc3)C(=O)N2[C@H]1C(=O)O` [Pfizerpen, reference compound], with -0.19. Same read-out and setting: then `c1ccc2[nH]c(-c3cscn3)nc2c1` [THIABENDAZOLE, reference compound], with -1.42; and `OC(CCN1CCCCC1)(c1ccccc1)C1CCCCC1` (stereo not drawn) [Artane, reference compound], with -0.35; and `CC1(C)O[C@@H]2C[C@H]3[C@@H]4C[C@H](F)C5=CC(=O)C=C[C@]5(C)[C@@]4(F)[C@@H](O)C[C@]3(C)[C@]2(C(=O)CO)O1` [FLUOCINOLONE ACETONIDE, reference compound], with -0.16. For `Nc1nc2c(ncn2COCCO)c(=O)[nH]1` [Acyclovir, reference compound], the Z-SCORE amounted to 0.99. In turn, `C#C[C@]1(OC(C)=O)CC[C@H]2[C@@H]3CCC4=CC(=O)CC[C@@H]4[C@H]3CC[C@@]21C` [19-NORETHINDRONE ACETATE, reference compound] displayed a Z-SCORE of -0.99. In the case of `CC(=O)[C@H]1CC[C@H]2[C@@H]3C[C@H](C)C4=CC(=O)CC[C@]4(C)[C@H]3[C@@H](O)C[C@]12C` [Medrysone, reference compound], the Z-SCORE is listed as -1.74. On the same count and under the same terms, then `CN(C)CCCN1c2ccccc2CCc2ccc(Cl)cc21` [Anafranil, reference compound], with 0.12; and `CC(C)Cc1ccc(C(C)C(=O)O)cc1` (stereo not drawn) [IBUPROFEN, reference compound], with 0.27; and `Oc1cc(Cl)ccc1Oc1ccc(Cl)cc1Cl` [Triclosan, reference compound], with “flagged”. Same read-out and setting: then `CNCC(O)c1ccc(O)c(O)c1.Cl` (racemic) [(+/-)-Epinephrine hydrochloride, reference compound], with -0.69; and `CCCN(CCC)S(=O)(=O)c1ccc(C(=O)O)cc1` [Probenecid, reference compound], with 1.6; and `O=c1[nH]cc(F)c(=O)[nH]1` [5-FLUOROURACIL, reference compound], with -1.82. Still for that read-out and setting: then `O=C(O)c1cc2ccccc2c(Cc2c(O)c(C(=O)O)cc3ccccc23)c1O.OCCOCCN1CCN(C(c2ccccc2)c2ccc(Cl)cc2)CC1` [Vistaril Pamoate, reference compound], with -1.45.

In turn, `CCN(CC)CCOC(=O)c1ccc(N)cc1` [Novocain, reference compound] yielded a Z-SCORE of -0.44.

With `Cc1ccccc1C(OCCN(C)C)c1ccccc1` (stereo not drawn) [Disipal, reference compound], the Z-SCORE stood at 0.42. Same read-out and setting: then `NS(=O)(=O)c1cc2c(cc1Cl)N=CNS2(=O)=O` [Chlorothiazide, reference compound], with 0.42. As for `C[C@H]1O[C@@H](O[C@H]2[C@@H](O)C[C@H](O[C@H]3[C@@H](O)C[C@H](O[C@H]4CC[C@@]5(C)[C@H](CC[C@@H]6[C@@H]5C[C@@H](O)[C@]5(C)[C@@H](C7=CC(=O)OC7)CC[C@]65O)C4)O[C@@H]3C)O[C@@H]2C)C[C@H](O)[C@@H]1O` [DIGOXIN, reference compound], the Z-SCORE is listed as -1.73.
